ChEMBL document CHEMBL5230139, “Inhibitors of Eukaryotic Translational Machinery as Therapeutic Agents” (J Med Chem, 2021)
pEC50, pIC50: −log10 of the molar value. Numbered stars: 1 amine (or outer) side, 2 acyl side, 3 side chain; on linkers, the order of the positions; unused ones are H or OH. Bridge positions count the residues as written; N and C are the ends. Square brackets hold non-standard residues; d marks the D form. Peptide text beside a SMILES is read from it. X1 = CC[C@H](C)[C@@H](N[*:1])[C@@H](O)CC(=O)O[C@H](C(=O)[C@H](C)C(=O)[*:2])C(C)C; NMeY = CN[C@@H](Cc1ccc(O)cc1)C(=O)O; dNMeL = CN[C@H](CC(C)C)C(=O)O

Key:
SARS-CoV-2 [1] = test: Antiviral activity against SARS CoV-2 clinical isolate 2019-nCoV infected with African green monkey Vero E6 cells by qRT-PCR analysis; assay type: functional, organism-based; conditions: Severe acute respiratory syndrome coronavirus 2, 2019-nCoV, Vero C1008
A549 [2] = test: Antiproliferative activity against human A549 cells assessed as cell growth inhibition incubated for 24 by 14C-thymidine incorporation assay; assay type: functional, cell-based
HCT-116 [3] = test: Antiproliferative activity against human HCT-116 cells assessed as cell growth inhibition incubated for 24 by 14C-thymidine incorporation assay; assay type: functional, cell-based
L1210 = test: Anticancer activity against mouse L1210 cells allografted in mouse assessed as increase in survival rate; assay type: functional
[4] = Inhibition of EIF1A in human Jurkat cells assessed as reduction in T-cell receptor-mediated IL-2 expression; assay type: cell-based
[5] = test system: Cystic fibrosis transmembrane conductance regulator (Homo sapiens), P13569 [UNDEFINED MUTATION]; test: In vivo activation of human […]-G542X mutant xenografted in mouse model assessed as induction of […] channel expression at 34 mg/kg administered daily; assay type: functional, organism-based
H2K mdx = test: (§1) In vivo activation of dystrophin in mouse H2K mdx cells assessed as increase in production of dystrophin protein; assay type: functional
HeLa [6] = test: Antiproliferative activity against human HeLa cells assessed as cell growth inhibition; assay type: functional, cell-based
[7] = Antiproliferative activity against mouse JB6 Cl 41-5a cells assessed as cell growth inhibition; assay type: functional, cell-based
[8] = Cytotoxicity against mouse NIH/3T3 cells assessed as reduction in cell viability incubated for 4 days by SRB assay; assay type: toxicity, cell-based, NIH3T3
HeLa [9] = test: Antiproliferative activity against human HeLa cells assessed as cell growth inhibition by [35S] methionine incorporation assay; assay type: functional, cell-based
[10] = as §1; assay type: functional
[11] = Inhibition of EIF1A (unknown origin); set-up: species or system Homo sapiens
U-937 = test: Antiproliferative activity against human U-937 cells assessed as cell growth inhibition incubated for 48 hrs by MTS assay; assay type: functional, cell-based; conditions: U-937, 48 h
HL-60 = test: Antiproliferative activity against human HL-60 cells assessed as cell growth inhibition incubated for 48 hrs by MTS assay; assay type: functional, cell-based; conditions: HL-60, 48 h
NB-4 = test: Antiproliferative activity against human NB-4 cells assessed as cell growth inhibition incubated for 48 hrs by MTS assay; assay type: functional, cell-based; conditions: NB-4, 48 h
OCI-AML2 = test: Antiproliferative activity against human OCI-AML2 cells assessed as cell growth inhibition incubated for 48 hrs by MTS assay; assay type: functional, cell-based; conditions: OCI-AML2, 48 h
OCI-AML-3 = test: Antiproliferative activity against human OCI-AML-3 cells assessed as cell growth inhibition incubated for 48 hrs by MTS assay; assay type: functional, cell-based; conditions: OCI-AML-3, 48 h
SARS-CoV-2 [12] = test: Antiviral activity against SARS-CoV-2 infected in African green monkey Vero E6 cells assessed as inhibition of viral replication; assay type: functional, organism-based; conditions: Severe acute respiratory syndrome coronavirus 2, Vero C1008
3T3-L1 = test: Cytotoxicity against mouse 3T3-L1 adipocyte assessed as inhibition of fat accumulation incubated for 30 mins; assay type: toxicity, cell-based; conditions: 3T3-L1, 0.5 h
HCT-116 [13] = test: Antiproliferative activity against human HCT-116 cells assessed as cell growth inhibition; assay type: functional, cell-based
P388 [14] = test: Antiproliferative activity against mouse P388 cells assessed as cell growth inhibition incubated for 3 days; assay type: functional, cell-based; conditions: P388, 72 h
A549 [15] = test: Antiproliferative activity against human A549 cells assessed as cell growth inhibition incubated for 3 days; assay type: functional, cell-based; conditions: A549, 72 h
HT-29 = test: Antiproliferative activity against human HT-29 cells assessed as cell growth inhibition incubated for 3 days; assay type: functional, cell-based; conditions: HT-29, 72 h
SK-MEL-28 = test: Antiproliferative activity against human SK-MEL-28 cells assessed as cell growth inhibition incubated for 3 days; assay type: functional, cell-based; conditions: SK-MEL-28, 72 h
P388 [16] = test: Inhibition of protein synthesis in mouse P388 cells measured after 72 hrs; assay type: functional, cell-based; conditions: P388, 72 h
P388 [17] = test: Inhibition of DNA synthesis in mouse P388 cells measured after 72 hrs; assay type: functional, cell-based; conditions: P388, 72 h
P388 [18] = test: Inhibition of RNA synthesis in mouse P388 cells measured after 72 hrs; assay type: functional, cell-based

Sequence of Cystic fibrosis transmembrane conductance regulator (Homo sapiens), P13569 [UNDEFINED MUTATION] (P13569 whole entry, looked up): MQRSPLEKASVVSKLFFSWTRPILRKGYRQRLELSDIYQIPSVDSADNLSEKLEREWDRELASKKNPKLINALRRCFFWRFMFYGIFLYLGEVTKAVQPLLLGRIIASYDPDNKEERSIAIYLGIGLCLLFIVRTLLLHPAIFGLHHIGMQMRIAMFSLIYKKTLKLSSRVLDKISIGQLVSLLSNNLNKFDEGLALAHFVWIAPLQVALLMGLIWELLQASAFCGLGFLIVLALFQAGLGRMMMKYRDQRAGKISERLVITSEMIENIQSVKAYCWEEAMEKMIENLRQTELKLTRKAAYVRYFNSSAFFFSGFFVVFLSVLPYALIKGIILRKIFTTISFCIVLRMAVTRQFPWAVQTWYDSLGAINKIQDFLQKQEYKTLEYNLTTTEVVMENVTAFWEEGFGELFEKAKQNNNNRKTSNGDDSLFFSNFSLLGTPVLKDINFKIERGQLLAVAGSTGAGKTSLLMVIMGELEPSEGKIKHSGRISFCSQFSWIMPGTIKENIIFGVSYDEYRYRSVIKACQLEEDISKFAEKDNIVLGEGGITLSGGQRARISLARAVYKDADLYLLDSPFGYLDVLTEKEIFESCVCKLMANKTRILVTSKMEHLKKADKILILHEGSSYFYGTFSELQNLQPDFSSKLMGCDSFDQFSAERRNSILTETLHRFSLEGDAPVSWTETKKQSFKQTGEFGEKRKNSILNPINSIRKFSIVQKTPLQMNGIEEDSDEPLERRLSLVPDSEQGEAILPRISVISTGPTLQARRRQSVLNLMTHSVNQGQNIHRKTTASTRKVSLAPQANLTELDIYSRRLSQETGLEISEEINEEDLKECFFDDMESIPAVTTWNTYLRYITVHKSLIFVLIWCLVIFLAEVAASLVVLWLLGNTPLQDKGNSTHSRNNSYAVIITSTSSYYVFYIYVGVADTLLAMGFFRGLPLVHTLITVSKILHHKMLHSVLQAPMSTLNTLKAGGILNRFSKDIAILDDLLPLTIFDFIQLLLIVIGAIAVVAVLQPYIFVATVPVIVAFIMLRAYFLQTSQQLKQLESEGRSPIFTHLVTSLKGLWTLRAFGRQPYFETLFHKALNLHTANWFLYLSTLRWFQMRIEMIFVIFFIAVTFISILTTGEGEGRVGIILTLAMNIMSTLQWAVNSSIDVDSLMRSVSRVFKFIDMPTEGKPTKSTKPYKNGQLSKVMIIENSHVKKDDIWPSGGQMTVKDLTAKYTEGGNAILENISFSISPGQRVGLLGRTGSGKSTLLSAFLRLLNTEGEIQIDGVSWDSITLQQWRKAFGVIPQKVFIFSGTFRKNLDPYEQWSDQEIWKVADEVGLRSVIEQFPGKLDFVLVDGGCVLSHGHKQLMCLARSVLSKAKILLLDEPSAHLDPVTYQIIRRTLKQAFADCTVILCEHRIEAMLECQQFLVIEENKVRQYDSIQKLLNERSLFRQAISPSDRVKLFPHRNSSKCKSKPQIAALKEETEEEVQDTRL

With `NC(=O)c1ncn([C@@H]2O[C@H](CO)[C@@H](O)[C@H]2O)n1` [RIBAVIRIN] the pEC50 (SARS-CoV-2 [1]) was 3.96.
For `COc1cc(C[C@H]2NC(=O)[C@H](C(C)C)N(C)C(=O)/C=C\C[C@@H](OC)/C(C)=C/C=C/[C@@H](C)[C@@H](c3ccccc3)OC(=O)[C@H](C(C)C)NC2=O)ccc1O`, the pIC50 (A549 [2]) was 7.70 and the pIC50 (HCT-116 [3]) was 7.31.
Compound `CN1C(=O)N[C@H]2[C@@H]3NC(=O)c4ccc(Br)n4[C@@H]3C[C@]21O` [AGELASTATIN A] has a Survival (L1210) of 63%.
`C/C1=C/C=C\C(=O)O[C@H](/C=C(C)/C=C/C=C/CN(C)C)Cc2csc(n2)CCCCC(=O)O[C@H](C)C1` showed a pIC50 [4] of 9.10.
GENTAMICIN gave an Activity [5] of 10% and an Activity (H2K mdx) of 10%.
In the case of `C=C1C[C@](OC)([C@H](O)C(=O)N[C@H]2OCO[C@H]3[C@@H]2O[C@H](C[C@H](O)CO)C(C)(C)[C@@H]3OC)O[C@H](C)[C@@H]1C` [MYCALAMIDE A], the pIC50 (HeLa [6]) was 8.30 and the pIC50 [7] was 9.00.
For `COc1ccc([C@@]23Oc4cc(OC)cc(OC)c4[C@@]24NC(C)=N[C@@]4(O)[C@H](C(=O)N(C)OC)[C@H]3c2ccccc2)cc1`, the IC50 at 4 days [8] was 2 nM.
In the case of `CONC(=O)[C@H]1[C@@H](O)[C@@]2(O)c3c(OC)cc(OC)cc3O[C@@]2(c2ccc(OC)cc2)[C@@H]1c1ccccc1`, the IC50 at 4 days [8] was 9 nM.
Compound `COc1ccc([C@@]23Oc4cc(OC)cc(OC)c4[C@]2(O)[C@H](O)[C@H](C(=O)N(C)C)[C@H]3c2ccccc2)cc1` [ROCAGLAMIDE] has a pIC50 (HeLa [9]) of 7.00.
`O=C(O)c1cccc(-c2noc(-c3ccccc3F)n2)c1` [ATALUREN] showed an Activity [10] of 20%.
Compound `CC[C@H](C)[C@H]1NC(=O)[C@@H](NC(=O)[C@@H](CC(C)C)N(C)C(=O)[C@@H]2CCCN2C(C)=O)[C@@H](C)OC(=O)[C@H](Cc2ccc(OC)cc2)N(C)C(=O)[C@@H]2CCCN2C(=O)[C@H](CC(C)C)NC(=O)[C@@H](C)C(=O)[C@H](C(C)C)OC(=O)C[C@@H]1O` (Ac-P[dNMeL]T[X1]LP[NMeY](Me); ester 3-C) has a pIC50 [11] of 7.00.
`COC(=O)[C@H]1[C@@H](O)[C@@]2(O)c3c(OC)cc(O[C@@H]4O[C@@H]([C@H](O)CO)CO[C@H]4OC)cc3O[C@@]2(c2ccc(OC)cc2)[C@@H]1c1ccccc1` [SILVESTROL] gave a pIC50 (HeLa [9]) of 7.70, a pIC50 (U-937) of 8.40 and a pIC50 (HL-60) of 8.40. For the same compound, the pIC50 (NB-4) was 8.40, the pIC50 (OCI-AML2) was 8.40 and the pIC50 (OCI-AML-3) was 8.40.
With `COC(=O)C[C@](O)(CCCC(C)(C)O)C(=O)O[C@@H]1C(OC)=C[C@]23CCCN2CCc2cc4c(cc2[C@H]13)OCO4` [OMACETAXINE MEPESUCCINATE] the pEC50 (SARS-CoV-2 [12]) was 7.22.
In the case of `CC[C@H](C)[C@H]1NC(=O)[C@@H]([C@H](O)C(C)C)NC(=O)[C@@H](C)N(C)C(=O)[C@H](C)N(C)C(=O)[C@H](CC(C)C)NC(=O)[C@H](CC(C)C)N(C)C(=O)[C@H](C)N(C)C1=O`, the pEC50 (3T3-L1) was 7.70 and the pIC50 (HCT-116 [13]) was 7.15.
Work on `CC[C@H](C)[C@H]1NC(=O)[C@@H](NC(=O)[C@@H](CC(C)C)NC)[C@@H](C)OC(=O)[C@H](Cc2ccc(OC)cc2)N(C)C(=O)[C@@H]2CCCN2C(=O)[C@H](CC(C)C)NC(=O)[C@@H](C)C(=O)[C@H](C(C)C)OC(=O)C[C@@H]1O` [DIDEMNIN A] (H-[dNMeL]T[X1]LP[NMeY](Me); ester 2-C) yielded a pIC50 [11] of 6.40, a pIC50 (P388 [14]) of 8.00 and a pIC50 (A549 [15]) of 7.92. For the same compound, the pIC50 (HT-29) was 7.70, the pIC50 (SK-MEL-28) was 7.70 and the pIC50 (P388 [16]) was 6.40. For the same compound, the pIC50 (P388 [17]) was 6.00 and the IC50 (P388 [18]; p388) was “Not Active”.
For `CC[C@H](C)[C@H]1NC(=O)[C@@H](NC(=O)[C@@H](CC(C)C)N(C)C(=O)[C@@H]2CCCN2C(=O)C(C)=O)[C@@H](C)OC(=O)[C@H](Cc2ccc(OC)cc2)N(C)C(=O)[C@@H]2CCCN2C(=O)[C@H](CC(C)C)NC(=O)[C@@H](C)C(=O)[C@H](C(C)C)OC(=O)C[C@@H]1O` [PLITIDEPSIN], the pIC50 [11] was 6.30, the pIC50 (P388 [14]) was 9.70 and the pIC50 (A549 [15]) was 9.70. For the same compound, the pIC50 (HT-29) was 9.30, the pIC50 (SK-MEL-28) was 9.30 and the pIC50 (P388 [16]) was 6.30. It also gave a pIC50 (P388 [17]) of 7.00 and a pIC50 (P388 [18]; Mus musculus, P388, 72 h, read-out: IC50) of under 6.00.
